Test results: patent US12084436B2, “Heterocyclic compound” (Takeda Pharmaceutical Company Limited, priority 2019, dated 2024)

Target: T1, HDAC6 enzyme (Homo sapiens, UniProt Q9UBN7)
T1 construct: prepared by transducing full length HDAC6 gene into Sf-9 insect cells; GST; purchased SignalChem; host or cells: Sf-9 insect cells
T1 sequence (Q9UBN7 1-1215): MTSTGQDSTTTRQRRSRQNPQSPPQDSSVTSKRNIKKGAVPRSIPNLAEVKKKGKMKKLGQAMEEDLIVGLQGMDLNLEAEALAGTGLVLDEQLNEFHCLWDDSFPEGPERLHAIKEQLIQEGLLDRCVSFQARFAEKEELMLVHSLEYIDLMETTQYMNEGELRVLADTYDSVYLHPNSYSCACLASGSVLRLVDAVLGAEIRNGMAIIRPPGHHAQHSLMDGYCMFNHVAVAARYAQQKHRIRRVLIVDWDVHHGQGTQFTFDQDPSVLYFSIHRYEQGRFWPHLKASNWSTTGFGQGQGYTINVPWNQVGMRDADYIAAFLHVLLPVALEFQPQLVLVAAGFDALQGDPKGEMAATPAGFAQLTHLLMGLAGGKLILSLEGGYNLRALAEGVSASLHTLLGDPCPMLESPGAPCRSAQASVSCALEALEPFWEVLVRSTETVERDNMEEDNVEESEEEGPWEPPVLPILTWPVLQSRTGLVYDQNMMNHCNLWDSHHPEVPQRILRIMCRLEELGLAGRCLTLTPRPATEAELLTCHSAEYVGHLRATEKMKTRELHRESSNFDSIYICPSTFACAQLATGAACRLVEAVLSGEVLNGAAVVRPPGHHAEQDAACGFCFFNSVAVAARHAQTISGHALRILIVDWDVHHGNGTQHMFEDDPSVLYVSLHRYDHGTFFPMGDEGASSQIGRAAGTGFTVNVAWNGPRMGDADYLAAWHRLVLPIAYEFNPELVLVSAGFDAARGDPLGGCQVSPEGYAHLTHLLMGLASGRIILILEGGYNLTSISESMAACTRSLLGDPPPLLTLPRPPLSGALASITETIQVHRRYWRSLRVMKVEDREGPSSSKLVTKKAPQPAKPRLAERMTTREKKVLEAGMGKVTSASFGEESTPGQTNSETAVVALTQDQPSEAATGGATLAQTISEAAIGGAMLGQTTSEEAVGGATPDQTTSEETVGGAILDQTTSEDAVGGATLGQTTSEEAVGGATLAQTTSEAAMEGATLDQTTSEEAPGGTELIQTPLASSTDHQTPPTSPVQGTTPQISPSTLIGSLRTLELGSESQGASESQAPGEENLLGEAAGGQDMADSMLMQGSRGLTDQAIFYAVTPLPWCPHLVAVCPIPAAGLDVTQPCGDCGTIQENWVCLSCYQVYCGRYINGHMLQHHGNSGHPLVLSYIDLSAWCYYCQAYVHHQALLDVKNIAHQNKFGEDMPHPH
Experiment: HDAC6 enzyme inhibitory assay (HDAC-Glo I/II Assay kit, luminescence)
Type: biochemical
Details: 10 μM test compound; wells without enzyme = 100% inhibition; 10 µM
Experimental: HDAC6 Enzyme Inhibitory Assay
HDAC6 enzyme prepared by transducing full length HDAC6 gene into Sf-9 insect cells and purifying by GST affinity column were purchased from SignalChem. Using this enzyme, HDAC6 enzyme inhibitory activities of the compound of the present invention were evaluated. Enzymes were used after preserved at −70° C. HDAC6 enzyme inhibitory activity of the compound of the present invention was measured using HDAC-Glo™ I/II Assay kit (Promega) according to the following experimental method. The test compound diluted with assay buffer (24 mM Tris-HCl (pH 7.5), 1 mM MgCl2, 0.35 mM KCl, 135 mM NaCl, 0.6 mM Glutathione, 0.01% Tween-20) was added to a 384-well plate by each 2 μL. Then, HDAC6 enzyme solution diluted with assay buffer was added thereto by each 4 μL, and the plate was incubated at room temperature for 60 min. After incubated, HDAC substrate-Developer solution prepared according to Promega protocol attached to the assay kit was added to the 384-well plate by each 2 μL, and the enzyme reaction was started. After reacting at room temperature for 20 min, luminescence level was measured using plate reader Envision (PerkinElmer). The inhibitory activity of each compound of Example was calculated as a relative activity value when luminescence level in wells without enzyme is considered as 100% inhibition.

In order of falling “HDAC6 inhibitory rate (%) (10 μM)” value:
1. CN1C(=O)c2cc(-c3nnc(C(F)F)o3)cnc2CC1(C)c1ccc(F)c(F)c1 (single isomer, unassigned; isomer 1) [Example 39b, 3-[5-(difluoromethyl)-1,3,4-oxadiazol-2-yl]-7-(3,4-difluorophenyl)-6,7-dimethyl-7,8-dihydro-1,6-naphthyridin-5(6H)-one (optical isomer 1)]  76%
2. CN1C(=O)c2cc(-c3nnc(C(F)F)o3)ccc2CC1(C)c1ccc(F)cc1 (single isomer, unassigned; isomer 1) [Example 23b, 7-[5-(difluoromethyl)-1,3,4-oxadiazol-2-yl]-3-(4-fluorophenyl)-2,3-dimethyl-3,4-dihydroisoquinolin-1(2H)-one (optical isomer 1)]  58%

Same assay, conditions: 10 μM test compound; wells without enzyme = 100% inhibition; read-out: HDAC6 inhibitory rate (%) (10 μM)

In order of rising inhibition at 10 µM:
1. O=C1c2cc(-c3nnc(C(F)F)o3)ccc2CN1NC1CCC(F)(F)CC1 [Example 35c, 2-[(4,4-difluorocyclohexyl)amino]-6-[5-(difluoromethyl)-1,3,4-oxadiazol-2-yl]-2,3-dihydro-1H-isoindol-1-one]  93%
2. CN(C1CC1)N1Cc2ccc(-c3nnc(C(F)F)o3)cc2C1=O [Example 66c, 2-[cyclopropyl(methyl)amino]-6-[5-(difluoromethyl)-1,3,4-oxadiazol-2-yl]-2,3-dihydro-1H-isoindol-1-one]  94%
3. Cc1nn(C)cc1Cn1ccnc1-c1cc(F)cc(-c2nnc(C(F)F)o2)c1 [Example 63a, 2-(difluoromethyl)-5-(3-{1-[(1,3-dimethyl-1H-pyrazol-4-yl)methyl]-1H-imidazol-2-yl}-5-fluorophenyl)-1,3,4-oxadiazole]  97%
4. O=C1c2cc(-c3nnc(C(F)F)o3)ccc2CN1NCC1CCOCC1 [Example 17c, 6-[5-(difluoromethyl)-1,3,4-oxadiazol-2-yl]-2-{[(oxan-4-yl)methyl]amino}-2,3-dihydro-1H-isoindol-1-one]  98%
5. Fc1cc(-c2nnc(C(F)F)o2)cc(-c2nccn2Cc2cncnc2)c1 [Example 25a, 5-[(2-{3-[5-(difluoromethyl)-1,3,4-oxadiazol-2-yl]-5-fluorophenyl}-1H-imidazol-1-yl)methyl]pyrimidine]  98%
6. CCOC(=O)CCCN(C)N1Cc2ccc(-c3nnc(C(F)F)o3)cc2C1=O [Example 50c, ethyl 4-[{6-[5-(difluoromethyl)-1,3,4-oxadiazol-2-yl]-1-oxo-1,3-dihydro-2H-isoindol-2-yl}(methyl)amino]butanoate]  98%
7. CC1(COc2cccnc2-c2cc(F)cc(-c3nnc(C(F)F)o3)c2)COC1 [Example 18a]  98%
8. CN1C(=O)c2cc(-c3nnc(C(F)F)o3)cnc2C[C@]1(C)c1cccc(F)c1 [Example 53b, (7R)-3-[5-(difluoromethyl)-1,3,4-oxadiazol-2-yl]-7-(3-fluorophenyl)-6,7-dimethyl-7,8-dihydro-1,6-naphthyridin-5(6H)-one]  98%
9. Fc1cc(-c2nnc(C(F)F)o2)cc(-c2nccn2Cc2cccc(C(F)(F)F)c2)c1 [Example 67a]  99%
10. Fc1cc(-c2nnc(C(F)F)o2)cc(-c2nccn2CC2CCC(F)(F)CC2)c1 [Example 28a, 2-(3-{1-[(4,4-difluorocyclohexyl)methyl]-1H-imidazol-2-yl)-5-fluorophenyl)-5-(difluoromethyl)-1,3,4-oxadiazole]  99%
11. O=C1c2cc(-c3nnc(C(F)F)o3)ccc2CN1NCc1ccc(F)cc1 [Example 6c, 6-[5-(difluoromethyl)-1,3,4-oxadiazol-2-yl]-2-{[(4-fluorophenyl)methyl]amino}-2,3-dihydro-1H-isoindol-1-one]  99%
12. CCOC(=O)CN(C)N1Cc2ccc(-c3nnc(C(F)F)o3)cc2C1=O [Example 46c, ethyl N-{6-[5-(difluoromethyl)-1,3,4-oxadiazol-2-yl]-1-oxo-1,3-dihydro-2H-isoindol-2-yl}-N-methylglycinate]  99%
13. O=C(OCC(F)F)N(Cc1cnn(C2CC2)c1)N1Cc2ccc(-c3nnc(C(F)F)o3)cc2C1=O [Example 13c, 2,2-difluoroethyl [(1-cyclopropyl-1H-pyrazol-4-yl)methyl]{6-[5-(difluoromethyl)-1,3,4-oxadiazol-2-yl]-1-oxo-1,3-dihydro-2H-isoindol-2-yl}carbamate]  99%
14. CCS(=O)(=O)N(Cc1ccc(F)cc1)N1Cc2ccc(-c3nnc(C(F)F)o3)cc2C1=O [Example 27c, N-{6-[5-(difluoromethyl)-1,3,4-oxadiazol-2-yl]-1-oxo-1,3-dihydro-2H-isoindol-2-yl}-N-[(4-fluorophenyl)methyl] ethanesulfonamide]  99%
15. O=C1NN(C2CCC(F)(F)CC2)Cc2ccc(-c3nnc(C(F)F)o3)cc21 [Example 29b, 3-(4,4-difluorocyclohexyl)-7-[5-(difluoromethyl)-1,3,4-oxadiazol-2-yl]-3,4-dihydrophthalazin-1(2H)-one]  99%
16. C[C@]1(c2ccc(F)cc2)Cc2ncc(-c3nnc(C(F)F)o3)cc2C(=O)N1CC(F)F [Example 55b, (7R)-6-(2,2-difluoroethyl)-3-[5-(difluoromethyl)-1,3,4-oxadiazol-2-yl]-7-(4-fluorophenyl)-7-methyl-7,8-dihydro-1,6-naphthyridin-5(6H)-one]  100%
17. CN1C(=O)c2cc(-c3nnc(C(F)F)o3)ccc2OC1(C)c1ccc(F)cc1 (single isomer, unassigned; isomer 1) [Example 8b, 6-[5-(difluoromethyl)-1,3,4-oxadiazol-2-yl]-2-(4-fluorophenyl)-2,3-dimethyl-2,3-dihydro-4H-1,3-benzoxazin-4-one (Optical Isomer 1)]  100%
18. Fc1cc(-c2nnc(C(F)F)o2)cc(-c2ncccc2OCC2CCOCC2)c1 [Example 7a, 2-{3-[5-(difluoromethyl)-1,3,4-oxadiazol-2-yl]-5-fluorophenyl]-3-[(oxan-4-yl)methoxy]pyridine]  100%
19. CC1(c2ccc(F)cc2)Oc2ccc(-c3nnc(C(F)F)o3)cc2C(=O)N1CC(F)F (stereo not drawn) [Example 56b, 3-(2,2-difluoroethyl)-6-[5-(difluoromethyl)-1,3,4-oxadiazol-2-yl]-2-(4-fluorophenyl)-2-methyl-2,3-dihydro-4H-1,3-benzoxazin-4-one]  100%
20. CC(C)(C)OC(=O)N(Cc1ccccc1)N1Cc2ccc(-c3nnc(C(F)F)o3)cc2C1=O [Example 4c, tert-butyl benzyl {6-[5-(difluoromethyl)-1,3,4-oxadiazol-2-yl]-1-oxo-1,3-dihydro-2H-isoindol-2-yl}carbamate]  100%
21. CN1C(=O)c2cc(-c3nnc(C(F)F)o3)ccc2OC1(C)c1cccc(Cl)c1 (stereo not drawn) [Example 19b, 2-(3-chlorophenyl)-6-[5-(difluoromethyl)-1,3,4-oxadiazol-2-yl]-2,3-dimethyl-2,3-dihydro-4H-1,3-benzoxazin-4-one]  100%
22. CC1(c2ccc(F)cc2)Oc2ccc(-c3nnc(C(F)F)o3)cc2C(=O)N1CC1CC1 (stereo not drawn) [Example 47b, 3-(cyclopropylmethyl)-6-[5-(difluoromethyl)-1,3,4-oxadiazol-2-yl]-2-(4-fluorophenyl)-2-methyl-2,3-dihydro-4H-1,3-benzoxazin-4-one]  101%
